This is an account of results in patent US9365522B2, “Pyrazole amide derivative” (AMGEN INC., priority 2015, dated 2016).

One assay deals with T1, ligand binding domain of human ROR gamma (Homo sapiens, UniProt P51449).
T1 construct: NM_001001523; expressed in transfected cells; host or cells: HEK293T
T1 sequence (P51449 247-497 isoform P51449-2): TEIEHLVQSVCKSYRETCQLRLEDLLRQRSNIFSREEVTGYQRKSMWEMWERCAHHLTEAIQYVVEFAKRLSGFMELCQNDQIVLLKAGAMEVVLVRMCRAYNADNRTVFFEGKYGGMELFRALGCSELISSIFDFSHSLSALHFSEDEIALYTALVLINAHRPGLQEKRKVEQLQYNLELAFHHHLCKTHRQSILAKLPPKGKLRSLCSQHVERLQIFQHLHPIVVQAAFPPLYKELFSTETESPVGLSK
Put plainly: ROR gamma reporter gene assay (GAL4-RORγ LBD luciferase, Dual-Glo). In kind it is cell-based. The settings on record: HEK293T cells transfected with pM-ROR gamma, 8 concentrations 3.5 nM to 10.5 μM, 24 h incubation. Put shortly: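 Transient GAL4-RORγ LBD (aa 247-497) / 5×UAS-luc / pRL-CMV cotransfection in HEK293T, charcoal-stripped 10% FBS. 8-pt dose, 3.5 nM–10.5 μM, 0.075% DMSO final. 24 h, 37 °C, 5% CO2. Dual-Glo firefly/renilla readout; pIC50 from curve fit.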
For the compound “cis-3-(4-((2-(3,5-dichloropyridin-4-yl)-2- oxoethyl)(4-fluorobenzyl)carbamoyl)-5- (trifluoromethyl)-1H-pyrazol-1-yl)-1- fluorocyclohexanecarboxylic acid [Example 83]”, the “result (pIC50, inhibition of RORγ transcriptional activity)” value amounted to 5.78. As to “trans-4-(4-((2-(3-chloro-5-fluoropyridin-4-yl)- 2-oxoethyl)-(2,2-dimethylbutyl)carbamoyl)-5- (trifluoromethyl)pyrazol-1-yl)-1- methylcyclohexane-1-carboxylic acid [Example 337]”, the “result (pIC50, inhibition of RORγ transcriptional activity)” value is recorded as 7.20.

Staying with this assay, now noted: HEK293T cells transfected with pM-ROR gamma, 8 concentrations 3.5 nM to 10.5 μM, 24 h incubation; read-out: result (pIC50, inhibition of RORγ transcriptional activity) (converted).
With `CC1(C)[C@@H]2C[C@H](N(CCn3cnc4cccc(Cl)c43)C(=O)c3cnn([C@H]4CC[C@](C)(C(=O)O)CC4)c3C(F)(F)F)C[C@@H]21` [Example 405, trans-4-(4-((2-(7-chloro-1H-benzo(d)imidazol-1-yl)ethyl)((1R,3r,5S)-6,6-dimethylbicyclo[3.1.0]hexan-3-yl)carbamoyl)-5-(trifluoromethyl)-1H-pyrazol-1-yl)-1-methylcyclohexanecarboxylic acid], the IC50 was not below 1.05e+07 pM. As to `CC(C)(C)CN(CC(=O)c1c(Cl)cccc1OC(F)F)C(=O)c1cnn([C@H]2CC[C@](C)(C(=O)O)CC2)c1C(F)(F)F` [Example 406, trans-4-(4-((2-(2-chloro-6-(difluoromethoxy)phenyl)-2-oxoethyl)-(2,2-dimethylpropyl)carbamoyl)-5-(trifluoromethyl)pyrazol-1-yl)-1-methylcyclohexane-1-carboxylic acid], the IC50 is 50100 pM. Same read-out and setting: with `Cc1ncc(Cl)c(C(O)CN(C(=O)c2cnn([C@H]3CC[C@](C)(C(=O)O)CC3)c2C(F)(F)F)[C@H]2C[C@@H]3[C@H](C2)C3(C)C)n1` (stereo partly drawn) [Example 407, trans-4-(4-((2-(5-chloro-2-methylpyrimidin-4-yl)-2-hydroxyethyl)((1R,3r,5S)-6,6-dimethylbicyclo[3.1.0]hexan-3-yl)carbamoyl)-5-(trifluoromethyl)-1H-pyrazol-1-yl)-1-methylcyclohexanecarboxylic acid] the figure was 479000 pM; with `CC1(C)[C@@H]2C[C@H](N(CC(O)c3ncncc3Cl)C(=O)c3cnn([C@H]4CC[C@](C)(C(=O)O)CC4)c3C(F)(F)F)C[C@@H]21` (stereo partly drawn) [Example 408, trans-4-(4-((2-(5-chloropyrimidin-4-yl)-2-hydroxyethyl)((1R,3r,5S)-6,6-dimethylbicyclo[3.1.0]hexan-3-yl)carbamoyl)-5-(trifluoromethyl)-1H-pyrazol-1-yl)-1-methylcyclohexanecarboxylic acid], 331000 pM; with `CC1(C)[C@@H]2C[C@H](N(CC(N)c3c(F)cccc3Cl)C(=O)c3cnn([C@H]4CC[C@](C)(C(=O)O)CC4)c3C(F)(F)F)C[C@@H]21` (stereo partly drawn) [Example 409, trans-4-(4-((2-amino-2-(2-chloro-6-fluorophenyl)ethyl)((1R,3r,5S)-6,6-dimethylbicyclo[3.1.0]hexan-3-yl)carbamoyl)-5-(trifluoromethyl)-1H-pyrazol-1-yl)-1-methylcyclohexanecarboxylic acid], 776000 pM. On the same count and under the same terms, the result for `Cc1nccnc1C(O)CN(C(=O)c1cnn([C@H]2CC[C@](C)(C(=O)O)CC2)c1C(F)(F)F)[C@H]1C[C@@H]2[C@H](C1)C2(C)C` (stereo partly drawn) [Example 410, trans-4-(4-(((1R,3r,5S)-6,6-dimethylbicyclo[3.1.0]hexan-3-yl)(2-hydroxy-2-(3-methylpyrazin-2-yl)ethyl)carbamoyl)-5-(trifluoromethyl)-1H-pyrazol-1-yl)-1-methylcyclohexanecarboxylic acid] reads 2.14e+06 pM; that for `CC1(C)[C@@H]2C[C@H](N(CC(O)c3ccsc3Cl)C(=O)c3cnn([C@H]4CC[C@](C)(C(=O)O)CC4)c3C(F)(F)F)C[C@@H]21` (stereo partly drawn) [Example 411, trans-4-(4-((2-(2-chlorothiophen-3-yl)-2-hydroxyethyl)((1R,3r,5S)-6,6-dimethylbicyclo[3.1.0]hexan-3-yl)carbamoyl)-5-(trifluoromethyl)-1H-pyrazol-1-y1)-1-methylcyclohexanecarboxylic acid], 224000 pM; that for `O=C(c1c(C(F)(F)F)nn([C@H]2CC[C@H](C(=O)O)CC2)c1C(F)(F)F)N(CCc1c(Cl)cncc1Cl)Cc1ccc(F)cc1` [Example 412, trans-4-(4-(2-(3,5-dichloropyridin-4-yl)ethyl-((4-fluorophenyl)methyl)carbamoyl)-3,5-bis(trifluoromethyl)pyrazol-1-yl)cyclohexane-1-carboxylic acid], 1.12e+06 pM.
